In ChEMBL document CHEMBL4229345, “Inhibition of trypanosome alternative oxidase without its N-terminal mitochondrial targeting signal (ΔMTS-TAO) by cationic and non-cationic 4-hydroxybenzoate and 4-alkoxybenzaldehyde derivatives active against T. brucei and T. congolense” (Eur J Med Chem, 2018):
Values after ≈ are worked out from the molar mass of the structure shown. Active and inactive are the calls of the source. The rule behind the calls is not given here.

Key:
[1] = system: Trypanosoma brucei brucei; assay: Anti-parasitic activity against bloodstream trypomastigote stage of wild-type Trypanosoma brucei brucei Lister 427 after 48 hrs in presence of 5 mM glycerol by resazurin-based assay; type: functional, organism-based; details: Lister 427, 48 h
[2] = Non-competitive inhibition of Trypanosoma brucei brucei TC221 TAO expressed in Escherichia coli FN102 assessed as reduction in ubiquinoldependent oxygen consumption by spectrophotometry
[3] = Inhibition of recombinant N-terminal His6 tagged SUMO-fused Trypanosoma brucei brucei TC221 TAO MTS deletion mutant expressed in Escherichia coli FN102 preincubated for 2 mins followed by ubiquinol-1 addition measured over 2 mins by double beam-dual wavelength UV-spectrophotometry
[4] = system: Trypanosoma brucei brucei; assay: Anti-parasitic activity against bloodstream trypomastigote stage of wild-type Trypanosoma brucei brucei Lister 427; type: functional
[5] = system: Trypanosoma congolense; assay: Anti-parasitic activity against bloodstream form of Trypanosoma congolense IL3000 after 48 hrs by resazurin-based assay; type: functional, organism-based; details: IL3000, 48 h
[6] = Selectivity index, ratio of CC50 for HFF cells to EC50 for bloodstream form of Trypanosoma congolense IL3000; type: toxicity; details: human, read-out: Ratio CC50/EC50
[7] = system: Trypanosoma brucei brucei; assay: Anti-parasitic activity against bloodstream trypomastigote stage of Trypanosoma brucei brucei with AQP2/3-dd knock out after 48 hrs by resazurin-based assay; type: functional, organism-based
[8] = system: Trypanosoma brucei brucei; assay: Anti-parasitic activity against bloodstream trypomastigote stage of Trypanosoma brucei brucei with AQP triple knock out after 48 hrs by resazurin-based assay; type: functional, organism-based
[9] = system: Trypanosoma brucei brucei; assay: Resistance factor, ratio of EC50 for bloodstream trypomastigote stage of Trypanosoma brucei brucei AQP triple knock out to EC50 for bloodstream trypomastigote stage of wild-type Trypanosoma brucei brucei Lister 427; type: functional
[10] = Protein binding in mouse serum up to 24 hrs by LC/MS analysis; type: ADME, cell-free; details: read-out: PB (converted)
[11] = system: Trypanosoma brucei brucei; assay: Resistance factor, ratio of EC50 for bloodstream trypomastigote stage of wild-type Trypanosoma brucei brucei Lister 427 in presence of 5 mM glycerol to EC50 for bloodstream trypomastigote stage of wild-type Trypanosoma brucei brucei Lister 427; type: functional
[12] = system: Trypanosoma brucei brucei; assay: Resistance factor, ratio of EC50 for bloodstream trypomastigote stage of Trypanosoma brucei brucei with AQP2/3-dd knock out to EC50 for bloodstream trypomastigote stage of wild-type Trypanosoma brucei brucei Lister 427; type: functional
[13] = system: Trypanosoma brucei brucei; assay: Anti-parasitic activity against bloodstream trypomastigote stage of wild-type Trypanosoma brucei brucei Lister 427 after 48 hrs by resazurin-based assay; type: functional, organism-based; details: Lister 427, 48 h
[14] = Selectivity index, ratio of CC50 for HFF cells to EC50 for bloodstream trypomastigote stage of wild-type Trypanosoma brucei brucei Lister 427; type: toxicity; details: human, read-out: Ratio CC50/EC50
[15] = Stability in mouse serum assessed as parent compound recovery after 15 mins by LC/MS analysis; type: ADME, cell-free; details: read-out: Drug recovery
[16] = Resistance factor, ratio of EC50 for bloodstream trypomastigote stage of pentamidine/diminazene/melaminophenyl arsenical resistant Trypanosoma brucei B48 to EC50 for bloodstream trypomastigote stage of wild-type Trypanosoma brucei brucei Lister 427; type: functional
[17] = system: Trypanosoma brucei; assay: Anti-parasitic activity against bloodstream trypomastigote stage of pentamidine/diminazene/melaminophenyl arsenical resistant Trypanosoma brucei B48 after 48 hrs by resazurin-based assay; type: functional, organism-based; details: B48, 48 h
[18] = Stability in mouse serum assessed as parent compound remaining after 0.25 to 24 hrs by LC/MS analysis; type: ADME, cell-free
[19] = Cytotoxicity against HFF cells assessed as reduction in cell viability after 30 hrs by resazurin-based assay; details: human
[20] = Stability in horse serum assessed as compound receovery after 24 hrs by LC/MS analysis; type: ADME, cell-free, Equus caballus; details: read-out: Drug recovery
[21] = system: Trypanosoma congolense; assay: Potency index, ratio of diminazene EC50 to test compound EC50 for anti-parasitic activity against bloodstream form of Trypanosoma congolense IL3000; type: functional
[22] = system: Trypanosoma brucei brucei; assay: Potency index, ratio of diminazene EC50 to test compound EC50 for anti-parasitic activity against bloodstream trypomastigote stage of wild-type Trypanosoma brucei brucei Lister 427; type: functional
[23] = Stability in horse serum assessed as compound hydrolysis after 2 hrs by LC/MS analysis; type: ADME, cell-free, Equus caballus; details: read-out: Drug degradation
[24] = Stability in mouse serum assessed as compound hydrolysis after 2 hrs by LC/MS analysis; type: ADME, cell-free; details: read-out: Drug degradation
[25] = Stability in mouse serum assessed as compound hydrolysis after 24 hrs by LC/MS analysis; type: ADME, cell-free; details: read-out: Drug degradation
[26] = Half life in mouse serum by LC/MS analysis; type: ADME, cell-free
[27] = Drug metabolism in human liver S9 fraction assessed as UGT mediated compound hydrolysis by measuring parent compound remaining at 5 uM measured after 30 mins in presence of UDPGA by RP-HPLC analysis; type: ADME, subcellular; details: read-out: Stability
[28] = Stability in horse serum assessed as compound hydrolysis after 24 hrs by LC/MS analysis; type: ADME, cell-free, Equus caballus; details: read-out: Drug degradation
[29] = Drug metabolism in human liver S9 fraction assessed as CYP450 mediated compound hydrolysis by measuring parent compound remaining at 5 uM measured after 30 mins in presence of NADPH by RP-HPLC analysis; type: ADME, subcellular; details: read-out: Stability
[30] = system: Trypanosoma brucei rhodesiense; assay: In vivo anti-parasitic activity against luciferase tagged Trypanosoma brucei rhodesiense STIB900 infected in NMRI mouse assessed as reduction in parasitemia at 10 mg/kg, ip for 4 consecutive days starting at day 3 post infection and measured 3 days hrs after last treatment on day 10 (reference value: 0%); type: functional; parameters: scale not given: the % may be the effect or the level left
[31] = system: Trypanosoma brucei rhodesiense; assay: In vivo anti-parasitic activity against luciferase tagged Trypanosoma brucei rhodesiense STIB900 infected in NMRI mouse assessed as cured mouse at 10 mg/kg, ip for 4 consecutive days starting at day 3 post infection; type: functional, organism-based
[32] = Drug metabolism in human liver S9 fraction assessed as UGT mediated compound hydrolysis by measuring parent compound remaining at 5 uM measured immediately in presence of UDPGA by RP-HPLC analysis; type: ADME, subcellular; details: read-out: Stability
[33] = Competitive inhibition of recombinant N-terminal His6 tagged SUMO-fused Trypanosoma brucei brucei TC221 TAO MTS deletion mutant expressed in Escherichia coli FN102 preincubated for 2 mins followed by ubiquinol-1 addition measured over 2 mins by Lineweaver-Burk plot analysis
[34] = Drug metabolism in human liver microsomes assessed as CYP450 mediated compound hydrolysis by measuring parent compound remaining at 5 uM measured after 60 mins in presence of NADPH by RP-HPLC analysis; type: ADME; details: read-out: Stability
[35] = Drug metabolism in human liver S9 fraction assessed as CYP450 mediated compound hydrolysis by measuring parent compound remaining at 5 uM measured immediately in presence of NADPH by RP-HPLC analysis; type: ADME, subcellular; details: read-out: Stability
[36] = Drug metabolism in human liver S9 fraction assessed as UGT mediated compound hydrolysis by measuring parent compound remaining at 5 uM measured after 120 mins in presence of UDPGA by RP-HPLC analysis; type: ADME, subcellular; details: read-out: Stability
[37] = Drug metabolism in human liver S9 fraction assessed as CYP450 mediated compound hydrolysis by measuring parent compound remaining at 5 uM measured after 120 mins in presence of NADPH by RP-HPLC analysis; type: ADME, subcellular; details: read-out: Stability
[38] = Drug metabolism in human liver microsomes assessed as CYP450 mediated compound hydrolysis by measuring parent compound remaining at 5 uM measured after 15 mins in presence of NADPH by RP-HPLC analysis; type: ADME; details: read-out: Stability
[39] = Drug metabolism in human liver S9 fraction assessed as CYP450 mediated compound hydrolysis by measuring parent compound remaining at 5 uM measured after 15 mins in presence of NADPH by RP-HPLC analysis; type: ADME, subcellular; details: read-out: Stability
[40] = Drug metabolism in human liver microsomes assessed as CYP450 mediated compound hydrolysis by measuring parent compound remaining at 5 uM measured after 30 mins in presence of NADPH by RP-HPLC analysis; type: ADME; details: read-out: Stability
[41] = Drug metabolism in human liver S9 fraction assessed as UGT mediated compound hydrolysis by measuring parent compound remaining at 5 uM measured after 15 mins in presence of UDPGA by RP-HPLC analysis; type: ADME, subcellular; details: read-out: Stability
[42] = Drug metabolism in human liver microsomes assessed as CYP450 mediated compound hydrolysis by measuring parent compound remaining at 5 uM measured after 120 mins in presence of NADPH by RP-HPLC analysis; type: ADME; details: read-out: Stability
[43] = Drug metabolism in human liver microsomes assessed as CYP450 mediated compound hydrolysis by measuring parent compound remaining at 5 uM measured immediately in presence of NADPH by RP-HPLC analysis; type: ADME; details: read-out: Stability
[44] = Drug metabolism in human liver S9 fraction assessed as CYP450 mediated compound hydrolysis by measuring parent compound remaining at 5 uM measured after 60 mins in presence of NADPH by RP-HPLC analysis; type: ADME, subcellular; details: read-out: Stability
[45] = system: Trypanosoma brucei rhodesiense; assay: In vivo anti-parasitic activity against luciferase tagged Trypanosoma brucei rhodesiense STIB900 infected in NMRI mouse assessed as reduction in parasitemia at 10 mg/kg, ip for 4 consecutive days starting at day 3 post infection and measured after last treatment on day 7 (reference value: 0%); type: functional; parameters: scale not given: the % may be the effect or the level left
[46] = Drug metabolism in human liver S9 fraction assessed as UGT mediated compound hydrolysis by measuring parent compound remaining at 5 uM measured after 60 mins in presence of UDPGA by RP-HPLC analysis; type: ADME, subcellular; details: read-out: Stability

SMILES	IC50 [3] [nM]	EC50 [5] [nM]	selectivity ratio [6]	EC50 [1] [nM]	EC50 [7] [nM]	EC50 [8] [nM]	Ratio EC50 [9]	Ratio EC50 [11]	Ratio EC50 [12]	EC50 [13] [nM]	selectivity ratio [14]	Ratio EC50 [16]	EC50 [17] [nM]	CC50 at 30 h [19] [nM]	Ratio EC50 [21]	Ratio EC50 [22]	metabolised at 24 h [25] [%]	other results
C/C(=C\Cc1c(O)c(Cl)c(C)c(C=O)c1O)CC/C=C(\C)[C@@H]1CC(=O)C(C)(C)O1 [ASCOFURANONE]	2																	MIC [1]: 30 µM; Ki [2]: 2.38 nM; MIC [4]: 250 µM (≈ 105 µg/mL)
O=Cc1ccc(OCCCCCCCCCCCCCC[P+](c2ccccc2)(c2ccccc2)c2ccccc2)cc1O.[Br-]	220	270	> 740	67	42	53	0.4	0.51	0.32	133	> 1500	0.8	110	> 200000				fraction unbound at 24 h [10]: 0.1; remaining at 0.25 h [15]: 12%; Stability [18]: Stable
COc1ccc([C@@H]2Sc3ccccc3N(CCN(C)C)C(=O)[C@@H]2OC(C)=O)cc1 [DILTIAZEM]																		remaining at 24 h [20]: 1%
Cc1cc(O)ccc1C(=O)OCCCCCCCCCCCCCC[P+](c1ccccc1)(c1ccccc1)c1ccccc1.[Br-]	81	39	> 5130	3.2	2.2	5	2	1.32	0.92	2.4	> 83000	0.9	2.2	> 200000	5 - 40	5 - 40	> 99	metabolised at 2 h [23]: < 20%; metabolised at 2 h [24]: 70%; half-life [26]: 1 h
Cc1cc(O)cc(O)c1C(=O)OCCCCCCCCCCCCCC[P+](c1ccccc1)(c1ccccc1)c1ccccc1.[Br-]	88	5	> 40000	1.4	0.8	1.4	0.89	0.92	0.51	1.6	> 125000	1.2	1.9	> 200000	5 - 40	5 - 40	< 20	remaining at 0.5 h, 5 µM [27]: 66.9%; metabolised at 24 h [28]: < 30%; remaining at 0.5 h, 5 µM [29]: 101%; Activity [30]: 27.9%; Activity [31]: inactive; remaining at 0 min, 5 µM [32]: 100%; Ki [33]: 870 nM; remaining at 1 h, 5 µM [34]: 93.4%; remaining at 0 min, 5 µM [35]: 100%; remaining at 2 h, 5 µM [36]: 52.6%; remaining at 2 h, 5 µM [37]: 94.1%; remaining at 0.25 h, 5 µM [38]: 93.4%; remaining at 0.25 h, 5 µM [39]: 92.3%; remaining at 0.5 h, 5 µM [40]: 86%; remaining at 0.25 h, 5 µM [41]: 79.4%; remaining at 2 h, 5 µM [42]: 93.1%; remaining at 0 min, 5 µM [43]: 100%; remaining at 1 h, 5 µM [44]: 96.4%; Activity [45]: 94.7%; remaining at 1 h, 5 µM [46]: 58.2%
